Data on 15 molecules can be found in US12473283B2, “Compounds and their use” (Debiopharm International S.A., priority 2019, dated 2025).

Converted amounts (≈) assume the structure as drawn. Where two headings read alike, the source gives them in different places.

The target of experiment [1] is FabI enzyme from Acinetobacter baumannii (Acinetobacter baumannii, UniProt D0CAD5). Briefly: Inhibition of FabI enzyme, rate of NADH consumption. It counts as biochemical. The method, then:
Inhibition of FabI enzyme from Acinetobacter baumannii and Escherichia coli was tested by measuring the rate of NADH consumption (Δabsorbance at 340 nm/min) at 30° C. in 96-well plate format using an automated plate reader in the presence or absence of the test compounds. The assay mixture contained 100 mM Tris-HCl, pH 7.25 (A. baumannii) or 7.5 (E. coli), 100 mM ammonium acetate, 0.02% (A. baumannii) or 0.05% (E. coli) Pluronic F-68, 25 μM crotonyl ACP, 50 μM NADH, 25 pM (A. baumannii) or 50 pM (E. coli) recombinant FabI protein, and 7.5% DMSO. Test compounds were added at concentrations ranging from 0.17 to 10,000 nM in a final well volume of 100 μl. This dose-response inhibitory assay was performed using a 10-point, serial dilution series for each test compound. IC50 values for each test compound were assigned from logistical sigmoid curve-fitting of the inhibition dose response curves.

A further experiment concerns E. coli AG100. Briefly: Broth microdilution MIC assay. Format: cell-based. The following applies: Escherichia coli, CA-MHB, 35° C., 20 hours. The method, then: (§1) The antibacterial activity of FabI inhibitors against select Gram-negative and Gram-positive bacterial species including susceptible and multi-drug resistant A. baumannii, E. coli, K. pneumoniae and S. aureus was tested using the broth microdilution Minimal Inhibitory Concentration (MIC) assay following CLSI guidelines for insoluble compounds. Test articles were serially diluted 2-fold in 100% dimethyl sulfoxide (DMSO) and then diluted 100-fold into cation adjusted Mueller-Hinton broth (CA-MHB) to achieve a 10-point test concentration range in 1% DMSO. Final compound concentrations were 0.016-8 μg/ml for S. aureus or 0.06-32 μg/ml for the Gram-negative species. MIC test plates were then prepared by transferring 100 μl of the final assay medium (test article in CA-MHB, 1% DMSO) into the appropriate wells of a sterile, low binding 96-well polystyrene plate. Direct colony suspension inoculums of the test strains were freshly prepared per CLSI guidelines, and the appropriate test wells were inoculated to achieve a final bacterial cell density of 5×10^5 CFU/ml. Growth control (no test article) and negative control (no bacterial inoculum) wells were also included. Exposure to light was minimized during all stages of assay preparation. […] Bacterial growth was then determined by measuring the optical density at 600 nm (OD600) using a SpectraMax Plus plate-reader spectrophotometer.
For orientation: In broth dilution the organism is exposed to a series of concentrations in liquid medium.

The subject of experiment [2] is A. baumannii ATCC BAA1605. Briefly: Broth microdilution MIC assay. Format: cell-based. The following applies: Acinetobacter baumannii, ATCCBAA1605; CA-MHB, 35° C., 20 hours. Here is the method:
as §1

For another experiment, the system named is S. aureus ATCC 29213. Briefly: Broth microdilution MIC assay. The following applies: Staphylococcus aureus, ATCC29213; CA-MHB, 35° C., 20 hours. It counts as cell-based. Here is the method:
as §1

For the next experiment, the system named is K. pneumoniae A6030827. Briefly: Broth microdilution MIC assay. It counts as cell-based. Conditions: Klebsiella pneumoniae, CA-MHB, 35° C., 20 hours. Here is the method:
as §1

The subject of experiment [3] is Acinetobacter baumannii ATCC 17978. Briefly: Mouse thigh infection model. Conditions: 3 mg/kg q12h SC. Format: in vivo, BALB/c mice. The method, then:
(§2) Groups of 5 female specific-pathogen-free BALB/c mice weighing 18±2 g were used. In the 24 hr model (bacterial counts determined 24 hr after treatment start), mice were rendered neutropenic with cyclophosphamide intraperitoneal (IP) administration conducted at Days −4 (150 mg/kg), and day −1 (100 mg/kg). In the 72 hr model (bacterial counts determined 72 hr after treatment start), animals were rendered persistently neutropenic for the duration of the infection period with cyclophosphamide intraperitoneal (IP) administration conducted at Days −4 (150 mg/kg), −1 (100 mg/kg) and +1 (100 mg/kg). Persistent neutropenia is required to prevent pathogen clearance from thigh tissue in the 74 hr model. Nutritional supplementation (diet gel) plus saline SC injections were provided daily to help animals tolerate the cyclophosphamide treatment.
On day 0, animals were inoculated intramuscularly (0.1 ml/thigh) with a 1.67×10^4 inoculum count of Acinetobacter baumannii ATCC 17978. Vehicle control (40% Captisol), positive control (tigecycline) or test substances were then administered 2 hr post infection by the subcutaneous (SC) route of administration. Each dosing group consisted of 5 female mice. The MICs of the compounds against the test strain were 8 μg/ml, 2 μg/ml and […] for compound 201, compound 71 and compound 200, respectively. At 26 or 74 hours after inoculation (24 or 72 hr after treatment initiation), animals were euthanized with CO2 asphyxiation and the thigh tissue harvested from each of the test animals. The tissues were homogenized in 3 mL of PBS, pH 7.4 with a homogenizer. Homogenates, 0.1 mL, were used for serial 10-fold dilutions and plated onto NB agar for colony counts. Efficacy is calculated as the change in log CFU/g thigh vs. the time 0 (treatment initiation) control.

Another experiment deals with A. baumannil ATCC 17978. Briefly: Mouse lung infection model. It counts as in vivo, BALB/c mice. Conditions: 3 mg/kg q12h SC. Here is the method: as §2, with “lung” for “thigh”
On day 0, animals were anesthetized with etomidate-lipuro emulsion (20 mg/10 mL; 20 mg/kg dose, IV) and then inoculated intranasally with an A. baumannil ATCC 17978 suspension, 1.36×10^5 CFU/mouse, 0.02 mL/mouse. Vehicle control (40% Captisol), positive control (tigecycline) or test substances were then administered 2 hr post infection by the subcutaneous (SC) route of administration. Each dosing group consisted of 5 female mice. The MICs of the compounds against the test strain were 8 μg/ml and 0.5 μg/ml for compound 201 and compound 200, respectively. At 26 or 74 hours after inoculation (24 or 72 hr after treatment initiation), animals were euthanized with CO2 asphyxiation and the lung tissue harvested from each of the test animals. The tissues were homogenized in 1 ml of PBS, pH 7.4 with a homogenizer. Homogenates, 0.1 mL, were used for serial 10-fold dilutions and plated onto MacConkey II agar for colony counts. Efficacy is calculated as the change in log CFU/g […] vs. the time 0 (treatment initiation) control.

[4] abbreviates: recombinant FabI, 30° C., pH 7.25, read-out: A. baumannii Fabl IC50.
Where [5] appears, read: total daily dose 6 mg/kg, 24 hr treatment.
Setting [6] is: total daily dose 6 mg/kg, 72 hr treatment.

Sequence of FabI enzyme from Acinetobacter baumannii (D0CAD5 entry or part of it): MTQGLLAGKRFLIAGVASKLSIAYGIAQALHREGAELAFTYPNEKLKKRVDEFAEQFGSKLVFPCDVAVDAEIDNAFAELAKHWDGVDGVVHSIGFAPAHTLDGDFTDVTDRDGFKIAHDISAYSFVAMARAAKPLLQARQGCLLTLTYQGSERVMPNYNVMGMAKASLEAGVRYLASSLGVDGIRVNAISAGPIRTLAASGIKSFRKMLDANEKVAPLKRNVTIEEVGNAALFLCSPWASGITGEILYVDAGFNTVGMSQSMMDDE

The term IC50 denotes the midpoint of a concentration-inhibition curve. Molecule `Cc1c(CN(C)C(=O)/C=C/c2cnc3c(c2)CC[C@H](N)C(=O)N3)oc2c(Cl)cccc12.Cl` (single isomer, unassigned) [Compound 98, hydrochloride] displayed an IC50 in experiment [1] below 10 nM.

Broadly, the MIC is the lowest concentration that inhibits growth of the organism. A low value points to a more susceptible organism. Turning to `Cc1c(CN(C)C(=O)/C=C/c2cnc3c(c2)CC[C@H](N)C(=O)N3)oc2c(Cl)cccc12.Cl` (single isomer, unassigned) [Compound 98], the minimum inhibitory concentration (MIC) (with E. coli AG100; in experiment [2]; in the experiment with S. aureus ATCC 29213; with K. pneumoniae A6030827) was at most 4 µg/mL in each case.

Consider `Cc1c(CN(C)C(=O)/C=C/c2cnc3c(c2)CC[C@H](N)C(=O)N3)oc2c(F)cccc12.Cl` (single isomer, unassigned) [Compound 107, hydrochloride], for which the IC50 in experiment [1] was below 10 nM.

`Cc1c(CN(C)C(=O)/C=C/c2cnc3c(c2)CC[C@H](N)C(=O)N3)oc2c(F)cccc12.Cl` (single isomer, unassigned) [Compound 107]: the MIC (against E. coli AG100; in experiment [2]; against S. aureus ATCC 29213; in the experiment with K. pneumoniae A6030827) was at most 4 µg/mL in each case.

Take `Cc1c(CN(C)C(=O)/C=C/c2cnc3c(c2)CC[C@H](N)C(=O)N3)sc2ccccc12.Cl` (single isomer, unassigned) [Compound 119]: the MIC (against E. coli AG100; in experiment [2]; with S. aureus ATCC 29213; in the experiment on K. pneumoniae A6030827) was at most 4 µg/mL throughout.

`Cc1c(CN(C)C(=O)/C=C/c2cnc3c(c2)CC[C@H](N)C(=O)N3)oc2cccc(F)c12.Cl` (single isomer, unassigned) [Compound 130, hydrochloride] had an IC50 in experiment [1] below 10 nM.

Turning to `Cc1c(CN(C)C(=O)/C=C/c2cnc3c(c2)CC[C@H](N)C(=O)N3)sc2c(F)cccc12.Cl` (single isomer, unassigned) [Compound 140, hydrochloride], the IC50 in experiment [1] was below 10 nM.

`Cc1c(CN(C)C(=O)/C=C/c2cnc3c(c2)CC[C@H](N)C(=O)N3)oc2ccc(Oc3cccnc3)cc12.Cl` (single isomer, unassigned) [Compound 151, hydrochloride] returned an IC50 in experiment [1] below 10 nM.

In the case of `Cc1c(CN(C)C(=O)/C=C/c2cnc3c(c2)CC[C@H](N)C(=O)N3)oc2ccc(Oc3cccnc3)cc12.Cl` (single isomer, unassigned) [Compound 151], the MIC in the experiment on E. coli AG100, against S. aureus ATCC 29213 and against K. pneumoniae A6030827 was at most 4 µg/mL in each case.

For the molecule `Cc1c(CN(C)C(=O)/C=C/c2cnc3c(c2)CC[C@H](N)C(=O)N3)oc2cccc(CNc3cccnc3)c12.Cl.Cl` (single isomer, unassigned) [Compound 167, dihydrochloride], the IC50 in experiment [1] was below 10 nM.

Regarding `CC(=O)NC1CNc2cc(/C=C/C(=O)N(C)Cc3oc4ccccc4c3C)cnc2NC1=O` (stereo not shown) [Compound 42, (E)-3-(3-acetamido-4-oxo-2,3,4,5-tetrahydro-1H-pyrido[2,3-b][1,4]diazepin-8-yl)-N-methyl-N-((3-methylbenzofuran-2-yl)methyl)acrylamide], the minimal inhibitory concentration (MIC) (in experiment [2]; against S. aureus ATCC 29213) was at most 4 µg/mL throughout.

Regarding `Cc1c(CN(C)C(=O)/C=C/c2cnc3c(c2)N[C@H](C)[C@H](N)C(=O)N3)oc2ccccc12` [Compound 52, (E)-3-((2R,3S)-3-amino-2-methyl-4-oxo-2,3,4,5-tetrahydro-1H-pyrido[2,3-b][1,4]diazepin-8-yl)-N-methyl-N-((3-methylbenzofuran-2-yl)methyl)acrylamide], the MIC (in the experiment on E. coli AG100; in experiment [2]; against S. aureus ATCC 29213) was at most 4 µg/mL each time. For the same molecule, in experiment [1] (setting [4]), the half-inhibitory concentration (IC50) was below 10 nM.

As for `Cc1oc2c(N)cccc2c1CN(C)C(=O)/C=C/c1cnc2c(c1)N[C@H](C)[C@H](N)C(=O)N2` [Compound 62, (E)-3-((2R,3S)-3-amino-2-methyl-4-oxo-2,3,4,5-tetrahydro-1H-pyrido[2,3-b][1,4]diazepin-8-yl)-N-((7-amino-2-methylbenzofuran-3-yl)methyl)-N-methylacrylamide], the MIC (against E. coli AG100; in experiment [2]; in the experiment on S. aureus ATCC 29213) was at most 4 µg/mL each time. Further, the IC50 in experiment [1] (setting [4]) was below 10 nM.

With `Cc1c(CN(C)C(=O)/C=C/c2cnc3c(c2)CCC(N2CCN(S(C)(=O)=O)CC2)C(=O)N3)oc2ccccc12` (stereo not shown) [Compound 187, (E)-N-methyl-N-((3-methylbenzofuran-2-yl)methyl)-3-(7-(4-(methylsulfonyl)piperazin-1-yl)-8-oxo-6,7,8,9-tetrahydro-5H-pyrido[2,3-b]azepin-3-yl)acrylamide], the MIC with E. coli AG100 was 16 µg/mL (≈ 29 µM); in experiment [2], at most 4 µg/mL; with S. aureus ATCC 29213, at most 4 µg/mL. Also, the half-maximal inhibitory concentration (IC50) in experiment [1] (setting [4]) is below 10 nM.

With `CN(C)c1cc(NC(=O)CNC(C)(C)C)c(O)c2c1C[C@H]1C[C@H]3[C@H](N(C)C)C(O)=C(C(N)=O)C(=O)[C@@]3(O)C(O)=C1C2=O` [Tigecycline, reference compound], the “Mean Change log CFU/g thigh 24 hr” value in experiment [3] (24 hr, vs. time 0 control) was −2.48 log CFU/g thigh. Further, the “Mean Change log CFU/g thigh 72 hr” value in experiment [3] (72 hr, vs. time 0 control) is −3.48 log CFU/g thigh. For the same molecule, in experiment [3] (setting [5]), the “Mean Log CFU/g thigh 24 hr” value was determined as 2.37 log CFU/g thigh. The “Mean Log CFU/g thigh 72 hr” value in experiment [3] (setting [6]) is on record as 1.36 log CFU/g thigh. The “Mean change log CFU/g lung 24 hr” value in the experiment on A. baumannil ATCC 17978 (24 hr, vs. time 0 control) is reported as −3.44 log CFU/g lung. In the experiment with A. baumannil ATCC 17978 (72 hr, vs. time 0 control), the “Mean change log CFU/g lung 72 hr” value was −4.74 log CFU/g lung. In addition, the “Mean Log CFU/g lung 24 hr” value with A. baumannil ATCC 17978 (setting [5]) worked out at 2.87 log CFU/g lung. Moreover, the “Mean Log CFU/g lung 72 hr” value in the experiment on A. baumannil ATCC 17978 (setting [6]) stood at 1.57 log CFU/g lung.
